Read-outs that look alike come from different tables or passages of the source. Where a SMILES comes first, the peptide text is derived from it. [ ]: non-standard residue; d: D form. The star is where a group is joined. Dolaproine = CO[C@@H]([C@@H]1CCCN1)[C@@H](C)C(=O)O; Dil = CC[C@H](C)[C@H](NC)[C@@H](CC(=O)O)OC; X1 = C[C@@H](N*)[C@@H](O)c1ccccc1; NMeV = CN[C@H](C(=O)O)C(C)C
Key:
[1] = tested on: SK-BR-3 human breast adenocarcinoma cell line; test: SK-BR-3 anti-proliferation / cell kill assay (CellTiter-Glo, 144 hrs); assay type: cell-based; settings: for IC50: Homo sapiens, SK-BR-3, read-out: SK-BR-3 IC50; for SK-BR-3 Ratio to Xa = H: IC50 ratio to parent payload with Xa = H
Experimental: Anti-proliferation assays were performed using a SK-BR-3 human breast adenocarcinoma (pleural effusion) cell line. The cells were grown in McCoy's 5a Medium supplemented with 10% FBS, penicillin/streptomycin and L-glutamine. Cells were seeded 1000/well in 96-well plate in 80ul complete growth media one day prior to adding ADCs and incubated at 37° C. 5% CO2 overnight.
The ADCs were 1:3 serially diluted 10 points in assay media (Opti-MEM+0.1% BSA). The concentrations of the testing ADCs cover the range of 1 nM to ˜1000 nM and also starting from different concentrations based on the cell killing potency in order to see EC50 covers, leaving the last well (10th) as blank (no ADC or compound). ADCs were first 1:3 serially diluted 10 points in DMSO starting from […] (the starting concentration of each ADC is different according to the EC50s), leaving the last well as blank (containing only DMSO). 10 μl DMSO-diluted compound was transferred to 990 μl assay media (Opti-MEM+0.1% BSA) in a 96-well deep well dilution plate. 20 μl assay media-diluted ADC was added to cells. Cells were incubated at 37° C. […] for 6 days (144 hrs). Plates were developed by adding 100 μl CTG reagent/well to the cells CellTiter-Glo®, from Promega, Cat. No G7573), shaken at room temperature for 10 min, sealed with white adhesive bottom seal and luminescence was read with Envision. Cell kill %=[1−(T144sample−T144blank)/(T144DMSO−T144blank)]×100%, wherein T144 is the data at 144 hours.
The table below provides the drug-antibody ratios (DARs) for conjugates 1-37, along with the EC50 results from the SKBR assays for the same conjugates. The following linker-payloads (from Table P1) were prepared as described in PCT/US2019/068185, the content of which is hereby incorporated by reference in its entirety: LP4-Ve, LP4-Ve, LP25-Ve, LP25-Ve, LP26-Ve, LP26-Ve, LP17-Ve, LP13-Ve, LP19-Ve, LP2-Ve, LP21-Ve, LP6-Vb, LP24-Vb, LP23-Vb, and LP15-VIh.

HCT15 cells = test: MDR cell based killing assay, HCT15 cells with or without Verapamil (CellTiter-Glo); design: species or system human; settings: for IC50: Homo sapiens; for HCT-15 with verapamil Ratio to Xa = H / HCT-15 Ratio to Xa = H: IC50 ratio to parent payload with Xa = H; for HCT-15 Ratio to Xa = H: without verapamil
How it was run: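 HCT15 colorectal cells (1000/well) in RPMI/10% FBS, with or without 5 ug/mL Verapamil, exposed to 1:3 serial dilutions (100 nM–15 pM) for 5 days. Viability by CellTiter-Glo ATP luminescence; IC50 (M) from four-parameter fit; ratio is IC50 without Verapamil divided by IC50 with Verapamil.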

C4-2 cells [2] = test: ADC cell based killing assay, C4-2 cells (anti-STEAP2 ADCs); design: species or system human
Experimental: (§1) To test the ability of the disclosed tubulysin payloads or prodrug payloads to kill human cell lines, an in vitro cytotoxicity assay can be performed. In vitro cytotoxicity of the disclosed payloads, as well as reference compounds, are evaluated using the CellTiter-Glo Assay Kit (Promega, Cat # G7573), in which the quantity of ATP present is used to determine the number of viable cells in culture. For the assay, C4-2, HEK293, or T47D cells are seeded at 4000 cells/well on Nunclon white 96-well plates in complete growth medium (DME high glucose:Ham's F12 at 4:1, 10% FBS, 100 units/ml Penicillin, 100 ug/ml streptomycin, 53 ug/ml glutatmine, 10 ug/ml insulin, 220 ng/ml biotin, 12.5 pg/ml T3, 12.5 ug/ml Adenine, 4 ug/ml transferrin for C42 cells; DME high glucose, 10% FBS, 100 units/ml Penicillin, 100 ug/ml streptomycin, 53 ug/ml glutatmine for HEK293; RPMI, 10% FBS, 100 units/ml Penicillin, 100 ug/ml streptomycin, 53 ug/ml glutatmine, 10 ug/ml insulin, 10 mM HEPEs, 200 nM Sodium Pyruvate for T47D cells) and grown overnight at 37° C. in 5% CO2. […] Relative luminescence units (RLU) can be determined on a Victor plate reader (PerkinElmer). The IC50 values are determined from a four-parameter logistic equation over a 10-point response curve (GraphPad Prism). […]

C4-2 cells [3] = test: Cell-based killing assay of payloads, C4-2 cells (CellTiter-Glo); design: species or system human
Experimental: as §1

[4] = HCT-15, read-out: HCT-15 with verapamil IC50
[5] = at the maximum concentration tested

In the case of `CCCCCCN(C(=O)[C@@H](NC(=O)[C@H]1CCCCN1)[C@@H](C)CC)[C@H](C[C@@H](OCC)c1nc(C(=O)N[C@@H](Cc2ccc(NC(=O)CN)cc2)CC(C)(C)C(=O)O)cs1)C(C)C` [Compound P32, (4S)-5-[4-(2-aminoacetamido)phenyl]-4-({2-[(1R,3R)-1-ethoxy-3-[(2S,3S)—N-hexyl-3-methyl-2-[(2R)-piperidin-2-ylformamido]pentanamido]-4-methylpentyl]-1,3-thiazol-4-yl}formamido)-2,2-dimethylpentanoic Acid], the IC50 [1] is reported as greater than 1 nM, the IC50 (HCT15 cells; HCT-15, read-out: HCT-15 IC50) is reported as greater than 100 nM and the IC50 (HCT15 cells; [4]) is reported as greater than 100 nM.

In the case of `CCCCCCN(C(=O)[C@@H](NC(=O)[C@H]1CCCCN1C)[C@@H](C)CC)[C@H](C[C@@H](O)c1nc(C(=O)N[C@@H](Cc2ccc(NC(=O)CN)c(F)c2)CC(C)(C)C(=O)O)cs1)C(C)C` [Compound P24, (4S)-5-[4-(2-aminoacetamido)-3-fluorophenyl]-4-({2-[(1R,3R)-3-[(2S,3S)—N-hexyl-3-methyl-2-{[(2R)-1-methylpiperidin-2-yl]formamido}pentanamido]-1-hydroxy-4-methylpentyl]-1,3-thiazol-4-yl}formamido)-2,2-dimethylpentanoic Acid], the IC50 [1] is reported as 0.86 nM, the “SK-BR-3 Ratio to Xa = H” value [1] is reported as 22x and the IC50 (HCT15 cells; HCT-15, read-out: HCT-15 IC50) is reported as 15.5 nM. For the same molecule, the IC50 (HCT15 cells; [4]) was 0.82 nM, the “HCT-15 with verapamil Ratio to Xa = H” value (HCT15 cells) was 3.2x and the “HCT-15 Ratio to Xa = H” value (HCT15 cells) was 5.2x.

For `CCCCCCN(C(=O)[C@@H](NC(=O)[C@H]1CCCCN1C)[C@@H](C)CC)[C@H](C[C@@H](OCC)c1nc(C(=O)N[C@@H](Cc2ccc(NC(=O)CN)c(F)c2)CC(C)(C)C(=O)O)cs1)C(C)C` [Compound P26, (4S)-5-[4-(2-aminoacetamido)-3-fluorophenyl]-4-({2-[(1R,3R)-1-ethoxy-3-[(2S,3S)—N-hexyl-3-methyl-2-{[(2R)-1-methylpiperidin-2-yl]formamido}pentanamido]-4-methylpentyl]-1,3-thiazol-4-yl}formamido)-2,2-dimethylpentanoic Acid], the IC50 [1] was 0.05 nM, the “SK-BR-3 Ratio to Xa = H” value [1] was 2.6x and the IC50 (HCT15 cells; HCT-15, read-out: HCT-15 IC50) was 0.25 nM. For the same molecule, the IC50 (HCT15 cells; [4]) was 0.05 nM, the “HCT-15 with verapamil Ratio to Xa = H” value (HCT15 cells) was 2.8x and the “HCT-15 Ratio to Xa = H” value (HCT15 cells) was 4.9x.

`CCCCCCN(C(=O)[C@@H](NC(=O)[C@H]1CCCCN1C)[C@@H](C)CC)[C@H](C[C@@H](OC(C)=O)c1nc(C(=O)N[C@@H](Cc2ccc(NC(=O)CN)cc2)CC(C)(C)C(=O)O)cs1)C(C)C` [Compound P28, (4S)-4-({2-[(1R,3R)-1-(acetyloxy)-3-[(2S,3S)—N-hexyl-3-methyl-2-{[(2R)-1-methylpiperidin-2-yl]formamido}pentanamido]-4-methylpentyl]-1,3-thiazol-4-yl}formamido)-5-[4-(2-aminoacetamido)phenyl]-2,2-dimethylpentanoic Acid] was tested, and the IC50 [1] was 0.03 nM, the “SK-BR-3 Ratio to Xa = H” value [1] was 2.5x and the IC50 (HCT15 cells; HCT-15, read-out: HCT-15 IC50) was 0.17 nM. The IC50 (HCT15 cells; [4]) was 0.11 nM, the “HCT-15 with verapamil Ratio to Xa = H” value (HCT15 cells) was 5.8x and the “HCT-15 Ratio to Xa = H” value (HCT15 cells) was 6.9x.

With `CC[C@H](C)[C@@H]([C@@H](CC(=O)N1CCC[C@H]1[C@H](OC)[C@@H](C)C(=O)N[C@H](C)[C@@H](O)c1ccccc1)OC)N(C)C(=O)[C@@H](NC(=O)[C@@H](NC)C(C)C)C(C)C` [MMAE, Monomethyl auristatin E] (H-[NMeV]V[Dil][Dolaproine]-X1) the “HCT-15 IC50/HCT-15+Verapamil IC50 ratio” value (HCT15 cells; IC50 without Verapamil divided by IC50 with Verapamil) was 23.7, the IC50 (C4-2 cells [2]; ADCs and reference payload) was 0.22 nM and the “maximum percent killing, C4-2 cells” value (C4-2 cells [2]; [5]) was 99%. For the same molecule, the IC50 (C4-2 cells [3]; 5-day incubation) was 0.283 nM and the “maximum % cell killing, C4-2 cells” value (C4-2 cells [3]; [5]) was 93.7%.

`CCCCCCN(C(=O)[C@@H](NC(=O)[C@H]1CCCCN1C)[C@@H](C)CC)[C@H](C[C@@H](OC(C)=O)c1nc(C(=O)N[C@@H](Cc2ccc(NCCN)cc2)CC(C)(C)C(=O)O)cs1)C(C)C` [Compound P30, (4S)-4-({2-[(1R,3R)-1-(acetyloxy)-3-[(2S,3S)—N-hexyl-3-methyl-2-{[(2R)-1-methylpiperidin-2-yl]formamido}pentanamido]-4-methylpentyl]-1,3-thiazol-4-yl}formamido)-5-{4-[(2-aminoethyl)amino]phenyl}-2,2-dimethylpentanoic Acid] was tested, and the IC50 [1] was 0.45 nM, the “SK-BR-3 Ratio to Xa = H” value [1] was 34x and the IC50 (HCT15 cells; HCT-15, read-out: HCT-15 IC50) was 2.64 nM. The IC50 (HCT15 cells; [4]) was 0.42 nM, the “HCT-15 with verapamil Ratio to Xa = H” value (HCT15 cells) was 22x and the “HCT-15 Ratio to Xa = H” value (HCT15 cells) was 155x.

In the case of `CCCCCCN(C(=O)[C@@H](NC(=O)[C@H]1CCCCN1)[C@@H](C)CC)[C@H](C[C@@H](OC(C)=O)c1nc(C(=O)N[C@@H](Cc2ccc(NC(=O)CN)c(F)c2)CC(C)(C)C(=O)O)cs1)C(C)C` [Compound P27, (4S)-4-({2-[(1R,3R)-1-(acetyloxy)-3-[(2S,3S)—N-hexyl-3-methyl-2-[(2R)-piperidin-2-ylformamido]pentanamido]-4-methylpentyl]-1,3-thiazol-4-yl}formamido)-5-[4-(2-aminoacetamido)-3-fluorophenyl]-2,2-dimethylpentanoic Acid], the IC50 [1] is reported as 0.11 nM, the “SK-BR-3 Ratio to Xa = H” value [1] is reported as 3.9x and the IC50 (HCT15 cells; HCT-15, read-out: HCT-15 IC50) is reported as 1.48 nM. The IC50 (HCT15 cells; [4]) was 0.09 nM, the “HCT-15 with verapamil Ratio to Xa = H” value (HCT15 cells) was 3.8x and the “HCT-15 Ratio to Xa = H” value (HCT15 cells) was 6.4x.

For `CCCCCCN(C(=O)[C@@H](NC(=O)[C@H]1CCCCN1C)[C@@H](C)CC)[C@H](C[C@@H](OC(C)=O)c1nc(C(=O)N[C@@H](Cc2ccc(NC(=O)CN)c(F)c2)CC(C)(C)C(=O)O)cs1)C(C)C` [Compound P25, (4S)-4-({2-[(1R,3R)-1-(acetyloxy)-3-[(2S,3S)—N-hexyl-3-methyl-2-{[(2R)-1-methylpiperidin-2-yl]formamido}pentanamido]-4-methylpentyl]-1,3-thiazol-4-yl}formamido)-5-[4-(2-aminoacetamido)-3-fluorophenyl]-2,2-dimethylpentanoic Acid], the IC50 [1] was 0.03 nM, the “SK-BR-3 Ratio to Xa = H” value [1] was 1.9x and the IC50 (HCT15 cells; HCT-15, read-out: HCT-15 IC50) was 0.08 nM. The IC50 (HCT15 cells; [4]) was 0.04 nM, the “HCT-15 with verapamil Ratio to Xa = H” value (HCT15 cells) was 4.0x and the “HCT-15 Ratio to Xa = H” value (HCT15 cells) was 4.0x.
